How the values were obtained:
[1] = Stability in SGF without pepsin; assay type: physicochemical
[2] = Stability in PBS pH 6.5; conditions: for half-life: PBS, pH 6.5, T½
[3] = Stability in SGF with pepsin; assay type: physicochemical
[4] = Stability in Mouse Plasma; assay type: in vitro ADME; conditions: for half-life: mouse, plasma
[5] = Table 8, if calculated T½ < 0, T½ reported as 9999 min

SMILES	Remaining Percentage ([1]; Table 10, 0 min) [%]	Remaining Percentage ([1]; Table 10, 30 min) [%]	Remaining Percentage ([1]; Table 10, 60 min) [%]	Remaining Percentage ([1]; Table 10, 120 min) [%]	Remaining Percentage ([1]; Table 10, 240 min) [%]	Remaining Percentage ([2]; Table 10, 0 min) [%]	Remaining Percentage ([2]; Table 10, 30 min) [%]	Remaining Percentage ([2]; Table 10, 60 min) [%]	Remaining Percentage ([2]; Table 10, 120 min) [%]	Remaining Percentage ([2]; Table 10, 240 min) [%]	Remaining Percentage ([3]; Table 10, 0 min) [%]	Remaining Percentage ([3]; Table 10, 30 min) [%]	Remaining Percentage ([3]; Table 10, 60 min) [%]	Remaining Percentage ([3]; Table 10, 120 min) [%]	Remaining Percentage ([3]; Table 10, 240 min) [%]	half-life ([3]; Table 10, read-out: T½) [min]	Remaining Percentage ([4]; Table 11, 0 min) [%]	Remaining Percentage ([4]; Table 11, 15 min) [%]	Remaining Percentage ([4]; Table 11, 30 min) [%]	Remaining Percentage ([4]; Table 11, 60 min) [%]	also measured
C[N+](C)(CCc1c[nH]c2ccccc12)COP(=O)([O-])O [VLS-02-23]	100.00	98.76	107.08	101.90	108.80	100.00	104.71	106.37	107.29	117.35	100.00	96.70	106.43	102.36	96.82	6230	100.00	114.24	110.21	109.95	T½ ([1]; Table 10): 6.94375 days; T½ ([2]; Table 10): 6.94375 days; Remaining Percentage ([4]; Table 11, 120 min): 91.16%; half-life ([4]; Table 11, read-out: T½): 568 min
CC(C)[N+](C)(CCOC(=O)C1c2ccccc2Oc2ccccc21)C(C)C [Propantheline, reference compound]	–	–	–	–	–	–	–	–	–	–	–	–	–	–	–	–	100.00	80.81	64.04	34.86	Remaining Percentage ([4]; Table 9, 0 min): 100.00%; Remaining Percentage ([4]; Table 9, 15 min): 85.78%; Remaining Percentage ([4]; Table 9, 30 min): 70.74%; Remaining Percentage ([4]; Table 9, 60 min): 29.46%; Remaining Percentage ([4]; Table 9, 120 min): 8.74%; Remaining Percentage ([4]; Table 11, 120 min): 9.05%; half-life ([4]; Table 9, read-out: T½): 32.6 min; half-life ([4]; Table 11, read-out: T½): 34.1 min
O=C(O)CCCc1ccc(N(CCCl)CCCl)cc1 [Chlorambucil, reference compound]	–	–	–	–	–	100.00	61.12	43.17	15.12	2.15	–	–	–	–	–	–	–	–	–	–	half-life [2, 5]: 47.2 min; half-life ([2]; Table 10): 43.2 min; Remaining Percentage ([2]; Table 8, 0 min): 100.00%; Remaining Percentage ([2]; Table 8, 30 min): 64.51%; Remaining Percentage ([2]; Table 8, 60 min): 42.26%; Remaining Percentage ([2]; Table 8, 120 min): 16.83%; Remaining Percentage ([2]; Table 8, 240 min): 2.99%
CC[C@H]1OC(=O)[C@H](C)[C@@H](O[C@H]2C[C@@](C)(OC)[C@@H](O)[C@H](C)O2)[C@H](C)[C@@H](O[C@@H]2O[C@H](C)C[C@H](N(C)C)[C@H]2O)[C@](C)(O)C[C@@H](C)C(=O)[C@H](C)[C@@H](O)[C@]1(C)O [Erythromycin, reference compound]	100.00	59.45	33.60	10.27	1.20	–	–	–	–	–	100.00	56.55	34.88	11.22	1.60	40.3	–	–	–	–	Remaining Percentage ([1]; Table 8, 0 min): 100.00%; Remaining Percentage ([1]; Table 8, 30 min): 52.67%; Remaining Percentage ([1]; Table 8, 60 min): 28.46%; Remaining Percentage ([1]; Table 8, 120 min): 8.27%; Remaining Percentage ([1]; Table 8, 240 min): 1.47%; half-life [1, 5]: 39.5 min; half-life ([1]; Table 10, read-out: T½): 37.4 min; Remaining Percentage ([3]; Table 8, 0 min): 100.00%; Remaining Percentage ([3]; Table 8, 30 min): 56.55%; Remaining Percentage ([3]; Table 8, 60 min): 37.33%; Remaining Percentage ([3]; Table 8, 120 min): 14.06%; Remaining Percentage ([3]; Table 8, 240 min): 2.14%; half-life [3, 5]: 43.6 min

Reference: patent US11643391B2, “Prodrugs and conjugates of dimethyltryptamine” (priority 2021, dated 2023)
